Reference: US20020173036A1, “Cell line and method of making and using same” (priority 2001, published 2002)

Legend:
hematopoietic cells = settings: cited from earlier work
PKC-α [1] = target: T1, PKC-α (Homo sapiens, UniProt P17252); experiment: PKC-α Western blot of cytosolic and particulate fractions; assay type: cell-based; settings: CAC-1 cells; for amount of PKC-α in the cytosolic fraction / amount of PKC-α in the particulate fraction: 1 μM, 90 min
T1 construct: Cytosolic and particulate fractions were prepared from CAC-1 cells and 30 μg of protein/lane was applied to SDS/PAGE and PKC-α detected by immunoblotting; endogenous in cells
Description: Confluent 100 mm dishes of CAC-1 cells in the exponential phase of growth (70-80% maximum density) were treated for 90 min with media alone or 1 μM doses of all-trans or 13-cis retinoic acid, corresponding amounts of ethanol (vehcile control) or with TPA for 20 min to activate PKC-α. Cytosolic and particulate fractions of cells were isolated as described previously (Carter, et al., 1998) and changes in PKC-α were analyzed by Western blot analysis using methods described previously and a primary antibody from Transduction Laboratories (Carter, et al., 1998).

MARCKS = MARCKS immunostaining (subcellular localization); assay type: cell-based, human; settings: 90 min at 37° C.
Description: (§1) Cells were treated as described for the growth culve for 90 min at 37° C. Prior to MARCKS staining some cells were treated with 14 nM bisindolylmaleimide (Calbiochem, La Jolla, Calif.) for 90 min at 37° C. in order to down-regulate PKC isoforms. Cells were immunostained for PKC-α using an immunofluorescent assay kit and instructions from Research and Diagnostics (Berkley, Calif.) as described previously by Carter, et al., 1998. For MARCKS staining, cells were fixed and permeabilized as described for F-actin visualization and exposed to an anti-MARCKS mouse monoclonal IgG antibody (Upstate Biotechnology, Lake Placid, N.Y.) diluted 1:400 in 1% Bovine Serum Albumin and 0.5% nonfat dry milk (Carnation) in PBS for 1 hr at 37° C. […] Cells were rinsed, mounted and observed as described for actin staining.

CAC-1 cells [2] = experiment: Retinoic acid treatment and F-actin staining with cell size measurement; settings: 1 μM, 90 min at 37° C.; for mean cell size relative to cells only exposed to media or ethanol: 25 cells per group; for cell enlargement and actin filament reorganization (F-actin staining): CAC-1 cells at passage 12
PKC-α [3] = target: T1, PKC-α; experiment: PKC-α immunostaining (subcellular localization); assay type: cell-based; settings: 1 μM, 90 min at 37° C.
Description: as §1

CAC-1 cells [4] = experiment: Cell detachment assay; assay type: cell-based, human; settings: 1 μM, 24 hrs at 37° C.
Description: CAC-1 cells were plated onto 35 mm plastic tissue culture dishes at 100,000 cells per dish and allowed to attach for 7 days. For analysis of the retinoic acid effects on cell attachment, cell detachment assays were performed using the methods of Guo, et al., 1995. Cells were exposed to media alone (controls), 1 μM 13-cis retinoic acid, […] retinoic acid or corresponding doses of ethanol alone in culture media alone (vehicle control) for 24 hrs at 37° C. prior to cell counting. The assays were performed in duplicate. Cells were rinsed twice with sterile HBSS and exposed to 0.5% trypsin/EDTA (Gibco, BRL) for 10 min with constant agitation on a rocker set at 120 rpm's. The media containing the detached cells was collected. Detached cells from each dish were counted using a hemacytometer and the mean calculated and graphed using Cricket Graph. Statistics were performed using StatMost, (DataMost Corporation, Sandy, Utah). Statistical analysis was performed using one way analysis of variance-(ANOVA).

CCCCCCCCCCCCCC(=O)O[C@@H]1[C@@H](C)[C@@]2(O)[C@@H](C=C(CO)C[C@]3(O)C(=O)C(C)=C[C@@H]23)[C@@H]2C(C)(C)[C@]12OC(C)=O [TPA, 12-O-tetradecanoylphorbol-13-acetate]
decrease in mean F-actin content (hematopoietic cells): 32%
PKC-α distribution between cytosolic and particulate fractions (PKC-α [1]; 100 nM TPA for 20 min): most of the PKC-α was present in the particulate fraction

bisindolylmaleimide
MARCKS localization (MARCKS; 14 nM): MARCKS staining was prominent in the plasma membrane

CC1=C(/C=C/C(C)=C/C=C/C(C)=C\C(=O)O)C(C)(C)CCC1 [13-cis retinoic acid]
amount of PKC-α in the cytosolic fraction (PKC-α [1]): slight increase
amount of PKC-α in the particulate fraction (PKC-α [1]): decrease
mean cell size relative to cells only exposed to media or ethanol (CAC-1 cells [2]): twice the size
cell enlargement and actin filament reorganization (F-actin staining) (CAC-1 cells [2]): cells enlarged and actin filaments were apparent
PKC-α localization (PKC-α [3]): localize exclusively to the cytoplasm occurring predominantly in perinuclear regions
MARCKS localization (MARCKS; 1 μM): MARCKS localized to the plasma membrane
decrease in cell detachment compared to controls (CAC-1 cells [4]): around 40%

CC1=C(/C=C/C(C)=C/C=C/C(C)=C/C(=O)O)C(C)(C)CCC1 [all-trans retinoic acid]
amount of PKC-α in the cytosolic fraction (PKC-α [1]): slight increase
amount of PKC-α in the particulate fraction (PKC-α [1]): decrease
mean cell size relative to cells only exposed to media or ethanol (CAC-1 cells [2]): twice the size
cell enlargement and actin filament reorganization (F-actin staining) (CAC-1 cells [2]): cells also enlarged and actin filaments were prominent throughout the cells
PKC-α localization (PKC-α [3]): localize exclusively to the cytoplasm occurring predominantly in perinuclear regions
MARCKS localization (MARCKS; 1 μM): MARCKS localized to the plasma membrane
decrease in cell detachment compared to controls (CAC-1 cells [4]): around 40%
